Laboratory results: ChEMBL document CHEMBL1671766, “In vitro activities of several antimicrobial agents against recently isolated and genotyped Chlamydia trachomatis urogenital serovars D through K” (2010)

Legend:
Type in all cases: functional, LLC-MK2
[1] = tested on: Chlamydia trachomatis; experiment: Antimicrobial activity against Chlamydia trachomatis serovar J infected in […] monolayers assessed as reduction in number of microbial inclusions after 48 hrs
[2] = tested on: Chlamydia trachomatis; experiment: Antimicrobial activity against Chlamydia trachomatis serovar K infected in […] monolayers assessed as reduction in number of microbial inclusions after 48 hrs
[3] = tested on: Chlamydia trachomatis; experiment: Bactericidal activity against Chlamydia trachomatis serovar D infected in […] monolayers assessed as reduction in number of microbial inclusions after 48 hrs
[4] = tested on: Chlamydia trachomatis; experiment: Bactericidal activity against Chlamydia trachomatis serovar G infected in […] monolayers assessed as reduction in number of microbial inclusions after 48 hrs
[5] = tested on: Chlamydia trachomatis; experiment: Bactericidal activity against Chlamydia trachomatis serovar J infected in […] monolayers assessed as reduction in number of microbial inclusions after 48 hrs
[6] = tested on: Chlamydia trachomatis; experiment: Antimicrobial activity against Chlamydia trachomatis serovar H infected in […] monolayers assessed as reduction in number of microbial inclusions after 48 hrs
[7] = tested on: Chlamydia trachomatis; experiment: Bactericidal activity against Chlamydia trachomatis serovar E infected in […] monolayers assessed as reduction in number of microbial inclusions after 48 hrs
[8] = tested on: Chlamydia trachomatis; experiment: Antimicrobial activity against Chlamydia trachomatis serovar E infected in […] monolayers assessed as reduction in number of microbial inclusions after 48 hrs
[9] = tested on: Chlamydia trachomatis; experiment: Bactericidal activity against Chlamydia trachomatis serovar I infected in […] monolayers assessed as reduction in number of microbial inclusions after 48 hrs
[10] = tested on: Chlamydia trachomatis; experiment: Antimicrobial activity against Chlamydia trachomatis UW-36 serovar J infected in […] monolayers assessed as reduction in number of microbial inclusions after 48 hrs; conditions: J/UW-36, 48 h
[11] = tested on: Chlamydia trachomatis; experiment: Bactericidal activity against Chlamydia trachomatis serovar K infected in […] monolayers assessed as reduction in number of microbial inclusions after 48 hrs
[12] = tested on: Chlamydia trachomatis; experiment: Bactericidal activity against Chlamydia trachomatis serovar F infected in […] monolayers assessed as reduction in number of microbial inclusions after 48 hrs
[13] = tested on: Chlamydia trachomatis; experiment: Antimicrobial activity against Chlamydia trachomatis serovar I infected in […] monolayers assessed as reduction in number of microbial inclusions after 48 hrs
[14] = tested on: Chlamydia trachomatis; experiment: Antimicrobial activity against Chlamydia trachomatis 580 serovar H infected in […] monolayers assessed as reduction in number of microbial inclusions after 48 hrs
[15] = tested on: Chlamydia trachomatis; experiment: Antimicrobial activity against Chlamydia trachomatis serovar G infected in […] monolayers assessed as reduction in number of microbial inclusions after 48 hrs
[16] = tested on: Chlamydia trachomatis; experiment: Antimicrobial activity against Chlamydia trachomatis Bour serovar E infected in […] monolayers assessed as reduction in number of microbial inclusions after 48 hrs
[17] = tested on: Chlamydia trachomatis; experiment: Bactericidal activity against Chlamydia trachomatis serovar H infected in […] monolayers assessed as reduction in number of microbial inclusions after 48 hrs
[18] = tested on: Chlamydia trachomatis; experiment: Antimicrobial activity against Chlamydia trachomatis serovar D infected in […] monolayers assessed as reduction in number of microbial inclusions after 48 hrs
[19] = tested on: Chlamydia trachomatis; experiment: Antimicrobial activity against Chlamydia trachomatis Ic Cal-8 serovar D infected in […] monolayers assessed as reduction in number of microbial inclusions after 48 hrs
[20] = tested on: Chlamydia trachomatis; experiment: Antimicrobial activity against Chlamydia trachomatis serovar F infected in […] monolayers assessed as reduction in number of microbial inclusions after 48 hrs

Work on CC[C@H]1OC(=O)[C@H](C)[C@@H](O[C@H]2C[C@@](C)(OC)[C@@H](O)[C@H](C)O2)[C@H](C)[C@@H](O[C@@H]2O[C@H](C)C[C@H](N(C)C)[C@H]2O)[C@](C)(O)C[C@@H](C)CN(C)[C@H](C)[C@@H](O)[C@]1(C)O [AZITHROMYCIN] yielded an MIC [1] of 0.25 µg/mL, an MIC [2] of 0.5 µg/mL and an MBC [3] of 0.5 µg/mL. The MBC [4] was 1 µg/mL, the MBC [5] was 0.5 µg/mL and the MIC [6] was 0.25 µg/mL. The MBC [7] was 1 µg/mL, the MIC [8] was 0.25 µg/mL and the MBC [9] was 1 µg/mL. It also gave an MIC [10] of 0.5 µg/mL, an MBC [11] of 0.5 µg/mL and an MBC [12] of 0.5 µg/mL. The MIC [13] was 0.5 µg/mL, the MIC [14] was 0.25 µg/mL and the MIC [15] was 0.5 µg/mL. For the same molecule, the MIC [16] was 0.25 µg/mL, the MBC [17] was 1 µg/mL and the MIC [18] was 0.25 µg/mL. For the same molecule, the MBC [19] was 1 µg/mL, the MIC [19] was 0.25 µg/mL and the MIC [20] was 0.5 µg/mL.

CC[C@H]1OC(=O)[C@H](C)[C@@H](O[C@H]2C[C@@](C)(OC)[C@@H](O)[C@H](C)O2)[C@H](C)[C@@H](O[C@@H]2O[C@H](C)C[C@H](N(C)C)[C@H]2O)[C@](C)(OC)C[C@@H](C)C(=O)[C@H](C)[C@@H](O)[C@]1(C)O [CLARITHROMYCIN] gave an MIC [1] of 0.03 µg/mL, an MIC [2] of 0.015 µg/mL and an MBC [3] of 0.03 µg/mL. It also gave an MBC [4] of 0.06 µg/mL, an MBC [5] of 0.06 µg/mL and an MIC [6] of 0.03 µg/mL. The MBC [7] was 0.03 µg/mL, the MIC [8] was 0.015 µg/mL and the MBC [9] was 0.03 µg/mL. The MIC [10] was 0.06 µg/mL, the MBC [11] was 0.03 µg/mL and the MBC [12] was 0.03 µg/mL. It also gave an MIC [13] of 0.015 µg/mL, an MIC [14] of 0.06 µg/mL and an MIC [15] of 0.03 µg/mL. For the same molecule, the MIC [16] was 0.03 µg/mL, the MBC [17] was 0.06 µg/mL and the MIC [18] was 0.03 µg/mL. It also gave an MBC [19] of 0.06 µg/mL, an MIC [19] of 0.03 µg/mL and an MIC [20] of 0.015 µg/mL.

In the case of C[C@H]1c2cccc(O)c2C(=O)C2=C(O)[C@]3(O)C(=O)C(C(N)=O)=C(O)[C@@H](N(C)C)[C@@H]3[C@@H](O)[C@@H]21.O [DOXYCYCLINE], the MIC [1] is reported as 0.06 µg/mL, the MIC [2] is reported as 0.03 µg/mL and the MBC [3] is reported as 0.06 µg/mL. It also gave an MBC [4] of 0.06 µg/mL, an MBC [5] of 0.06 µg/mL and an MIC [6] of 0.03 µg/mL. For the same molecule, the MBC [7] was 0.06 µg/mL, the MIC [8] was 0.03 µg/mL and the MBC [9] was 0.06 µg/mL. It also gave an MIC [10] of 0.5 µg/mL, an MBC [11] of 0.06 µg/mL and an MBC [12] of 0.06 µg/mL. It also gave an MIC [13] of 0.06 µg/mL, an MIC [14] of 0.06 µg/mL and an MIC [15] of 0.03 µg/mL. The MIC [16] was 0.03 µg/mL, the MBC [17] was 0.06 µg/mL and the MIC [18] was 0.03 µg/mL. For the same molecule, the MBC [19] was 0.06 µg/mL, the MIC [19] was 0.03 µg/mL and the MIC [20] was 0.03 µg/mL.

For CC[C@H]1OC(=O)[C@H](C)[C@@H](O[C@H]2C[C@@](C)(OC)[C@@H](O)[C@H](C)O2)[C@H](C)[C@@H](O[C@@H]2O[C@H](C)C[C@H](N(C)C)[C@H]2O)[C@](C)(O)C[C@@H](C)C(=O)[C@H](C)[C@@H](O)[C@]1(C)O [ERYTHROMYCIN], the MIC [1] was 1 µg/mL, the MIC [2] was 0.5 µg/mL and the MBC [3] was 1 µg/mL. For the same molecule, the MBC [4] was 1 µg/mL, the MBC [5] was 2 µg/mL and the MIC [6] was 0.5 µg/mL. The MBC [7] was 1 µg/mL, the MIC [8] was 0.5 µg/mL and the MBC [9] was 1 µg/mL. The MIC [10] was 0.5 µg/mL, the MBC [11] was 1 µg/mL and the MBC [12] was 1 µg/mL. It also gave an MIC [13] of 0.5 µg/mL, an MIC [14] of 1 µg/mL and an MIC [15] of 0.5 µg/mL. The MIC [16] was 0.5 µg/mL, the MBC [17] was 1 µg/mL and the MIC [18] was 0.5 µg/mL. For the same molecule, the MBC [19] was 1 µg/mL, the MIC [19] was 0.5 µg/mL and the MIC [20] was 0.5 µg/mL.

Molecule C[C@H]1COc2c(N3CCN(C)CC3)c(F)cc3c(=O)c(C(=O)O)cn1c23.C[C@H]1COc2c(N3CCN(C)CC3)c(F)cc3c(=O)c(C(=O)O)cn1c23.O [LEVOFLOXACIN] has an MIC [1] of 0.5 µg/mL, an MIC [2] of 0.5 µg/mL and an MBC [3] of 0.5 µg/mL. It also gave an MBC [4] of 0.25 µg/mL, an MBC [5] of 0.5 µg/mL and an MIC [6] of 0.5 µg/mL. It also gave an MBC [7] of 0.5 µg/mL, an MIC [8] of 0.5 µg/mL and an MBC [9] of 0.5 µg/mL. For the same molecule, the MBC [10] was 0.5 µg/mL, the MIC [10] was 0.5 µg/mL and the MBC [11] was 0.5 µg/mL. It also gave an MBC [12] of 0.5 µg/mL, an MIC [13] of 0.5 µg/mL and an MBC [14] of 0.5 µg/mL. For the same molecule, the MIC [14] was 0.5 µg/mL, the MIC [15] was 0.25 µg/mL and the MBC [16] was 0.5 µg/mL. It also gave an MIC [16] of 0.5 µg/mL, an MBC [17] of 0.5 µg/mL and an MIC [18] of 0.5 µg/mL. The MBC [19] was 0.5 µg/mL, the MIC [19] was 0.5 µg/mL and the MIC [20] was 0.5 µg/mL.
